Source: PubChem BioAssay (NCI)
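48-hour exposure; five concentrations; linearly interpolated endpoints. GI50: concentration for 50% inhibition of growth. TGI: concentration producing complete growth inhibition.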

Key:
Test in all cases: DTP human tumour cell line panel, 48 h
[1] = system: HOP-62 NSCLC
[2] = system: HCT-15 colon
[3] = system: SN12C renal
[4] = system: SNB-19 CNS
[5] = system: SNB-75 CNS
[6] = system: SF-268 CNS
[7] = system: U251 CNS
[8] = system: SF-295 CNS
[9] = system: M14 melanoma
[10] = system: SK-MEL-5 melanoma
[11] = system: DU-145 prostate
[12] = system: NCI-H23 lung
[13] = system: NCI-H522 lung
[14] = system: SW-620 colon
[15] = system: UACC-62 melanoma
[16] = system: OVCAR-3 ovarian
[17] = system: NCI/ADR-RES ovarian
[18] = system: HCT-116 colon
[19] = system: MOLT-4 leukemia
[20] = system: T-47D breast
[21] = system: RPMI-8226 leukemia
[22] = system: SK-MEL-28 melanoma
[23] = system: HOP-92 NSCLC
[24] = system: HL-60(TB) leukemia
[25] = system: MALME-3M melanoma
[26] = system: UO-31 renal
[27] = system: NCI-H460 lung
[28] = system: OVCAR-5 ovarian
[29] = system: IGROV1 ovarian
[30] = system: K-562 leukemia
[31] = system: NCI-H226 lung
[32] = system: 786-0 renal
[33] = system: OVCAR-8 ovarian
[34] = system: MDA-MB-435
[35] = system: MDA-MB-231 breast
[36] = system: COLO 205 colon
[37] = system: BT-549 breast
[38] = system: KM12 colon
[39] = system: ACHN renal
[40] = system: EKVX NSCLC
[41] = system: MCF7 breast
[42] = system: SF-539 CNS
[43] = system: A549 NSCLC
[44] = system: CCRF-CEM leukemia
[45] = system: PC-3 prostate
[46] = system: HS 578T breast
[47] = system: SK-MEL-2 melanoma
[48] = system: LOX IMVI melanoma
[49] = system: TK-10 renal
[50] = system: SK-OV-3 ovarian
[51] = system: HCC-2998 colon
[52] = system: HT29 colon
[53] = system: OVCAR-4 ovarian
[54] = system: SR leukemia
[55] = system: A498 renal
[56] = system: CAKI-1 renal
[57] = system: UACC-257 melanoma

Work on `CC[C@H](C)[C@H](NC(=O)c1nccn1C)C(=O)N(C)[C@H](C[C@@H](OC(C)=O)c1nc(C(=O)N[C@@H](Cc2ccccc2)C[C@H](C)C(=O)OC)cs1)C(C)C` yielded a GI50 [1] of 1.42 µM, a TGI [1] greater than 33.3 µM and a GI50 [2] of 0.999 µM. It also gave a TGI [2] greater than 33.3 µM, a GI50 [3] of 2.41 µM and a TGI [3] greater than 33.3 µM. For the same molecule, the GI50 [4] was 1.28 µM, the TGI [4] was greater than 33.3 µM and the GI50 [5] was 0.199 µM. It also gave a TGI [5] greater than 33.3 µM, a GI50 [6] of 1.43 µM and a TGI [6] greater than 33.3 µM. The GI50 [7] was 1.38 µM, the TGI [7] was greater than 33.3 µM and the GI50 [8] was 0.639 µM. It also gave a TGI [8] of 2.07 µM, a GI50 [9] of 0.557 µM and a TGI [9] of 1.6 µM. It also gave a GI50 [10] of 0.668 µM, a TGI [10] of 3.67 µM and a GI50 [11] of 1.3 µM. For the same molecule, the TGI [11] was greater than 33.3 µM, the GI50 [12] was 1.36 µM and the TGI [12] was greater than 33.3 µM. For the same molecule, the GI50 [13] was 0.351 µM, the TGI [13] was 1.56 µM and the GI50 [14] was 1.33 µM. For the same molecule, the TGI [14] was greater than 33.3 µM, the GI50 [15] was 0.289 µM and the TGI [15] was greater than 33.3 µM. For the same molecule, the GI50 [16] was 0.481 µM, the TGI [16] was 1.65 µM and the GI50 [17] was 3.18 µM. It also gave a TGI [17] greater than 33.3 µM, a GI50 [18] of 0.724 µM and a TGI [18] greater than 33.3 µM. It also gave a GI50 [19] of 1.65 µM, a TGI [19] greater than 33.3 µM and a GI50 [20] greater than 33.3 µM. It also gave a TGI [20] greater than 33.3 µM, a GI50 [21] of 0.531 µM and a TGI [21] of 12.1 µM. For the same molecule, the GI50 [22] was 5.05 µM, the TGI [22] was greater than 33.3 µM and the GI50 [23] was 4.86 µM. It also gave a TGI [23] greater than 33.3 µM, a GI50 [24] of 0.642 µM and a TGI [24] of 1.78 µM. The GI50 [25] was 5.87 µM, the TGI [25] was greater than 33.3 µM and the GI50 [26] was 2.9 µM. It also gave a TGI [26] greater than 33.3 µM, a GI50 [27] of 1.22 µM and a TGI [27] greater than 33.3 µM. The GI50 [28] was 2.23 µM, the TGI [28] was greater than 33.3 µM and the GI50 [29] was 0.704 µM. For the same molecule, the TGI [29] was greater than 33.3 µM, the GI50 [30] was 0.796 µM and the TGI [30] was greater than 33.3 µM. The GI50 [31] was 8.51 µM, the TGI [31] was greater than 33.3 µM and the GI50 [32] was 1.17 µM. For the same molecule, the TGI [32] was 14.5 µM, the GI50 [33] was 1.44 µM and the TGI [33] was greater than 33.3 µM. The GI50 [34] was 0.0944 µM, the TGI [34] was 0.428 µM and the GI50 [35] was 1.17 µM. The TGI [35] was 22 µM, the GI50 [36] was 0.99 µM and the TGI [36] was 4.11 µM. It also gave a GI50 [37] of 0.398 µM, a TGI [37] of 3.94 µM and a GI50 [38] of 0.553 µM. For the same molecule, the TGI [38] was greater than 33.3 µM, the GI50 [39] was 2.06 µM and the TGI [39] was greater than 33.3 µM. It also gave a GI50 [40] of 1.72 µM, a TGI [40] greater than 33.3 µM and a GI50 [41] of 0.187 µM. The TGI [41] was greater than 33.3 µM, the GI50 [42] was 0.702 µM and the TGI [42] was 1.97 µM. The GI50 [43] was 2.43 µM, the TGI [43] was greater than 33.3 µM and the GI50 [44] was 1.04 µM. The TGI [44] was greater than 33.3 µM, the GI50 [45] was 1.11 µM and the TGI [45] was greater than 33.3 µM. For the same molecule, the GI50 [46] was 1.11 µM, the TGI [46] was greater than 33.3 µM and the GI50 [47] was 0.806 µM. The TGI [47] was greater than 33.3 µM, the GI50 [48] was 1.59 µM and the TGI [48] was greater than 33.3 µM. It also gave a GI50 [49] of 7.49 µM, a TGI [49] greater than 33.3 µM and a GI50 [50] of 1.72 µM. It also gave a TGI [50] greater than 33.3 µM, a GI50 [51] of 1.08 µM and a TGI [51] greater than 33.3 µM. It also gave a GI50 [52] of 1 µM, a TGI [52] of 11.1 µM and a GI50 [53] of 1.88 µM. The TGI [53] was greater than 33.3 µM, the GI50 [54] was 0.179 µM and the TGI [54] was greater than 33.3 µM. It also gave a GI50 [55] of 1.11 µM and a TGI [55] greater than 33.3 µM.
For `c1ccc(-c2cnc3nc4ccccc4nc3n2)cc1`, the TGI [1] was 65.3 µM, the TGI [2] was greater than 100 µM and the TGI [3] was 31.5 µM. For the same molecule, the TGI [4] was 32.7 µM, the TGI [5] was 22.8 µM and the TGI [6] was 17.8 µM. It also gave a TGI [7] of 22.4 µM, a TGI [8] of 25.3 µM and a TGI [9] of 25.6 µM. For the same molecule, the TGI [10] was 12.3 µM, the TGI [11] was 19.6 µM and the TGI [12] was 22 µM. The TGI [13] was 19 µM, the TGI [14] was 18 µM and the TGI [15] was 15.4 µM. For the same molecule, the TGI [16] was 5.63 µM, the TGI [17] was 39 µM and the TGI [18] was 21.9 µM. The TGI [19] was 43.1 µM, the TGI [20] was 47 µM and the TGI [21] was 23.9 µM. It also gave a TGI [22] of 32.8 µM, a TGI [56] of 3.53 µM and a TGI [24] greater than 100 µM. It also gave a TGI [25] of 15.8 µM, a TGI [26] of 19.5 µM and a TGI [27] of 13.3 µM. The TGI [28] was 83.1 µM, the TGI [29] was 17.5 µM and the TGI [30] was greater than 100 µM. For the same molecule, the TGI [31] was 19.7 µM, the TGI [32] was greater than 100 µM and the TGI [33] was 6.8 µM. It also gave a TGI [34] of 3.22 µM, a TGI [35] of 17.4 µM and a TGI [36] of 17.6 µM. For the same molecule, the TGI [37] was 29 µM, the TGI [38] was 21.8 µM and the TGI [39] was 15.4 µM. For the same molecule, the TGI [40] was 16.5 µM, the TGI [41] was 4.71 µM and the TGI [42] was 15.8 µM. The TGI [43] was 23.6 µM, the TGI [44] was 10.2 µM and the TGI [46] was 33.3 µM. It also gave a TGI [47] of 15.1 µM, a TGI [48] of 20.1 µM and a TGI [49] of 20.8 µM. It also gave a TGI [50] of 9.12 µM, a TGI [51] of 43.3 µM and a TGI [52] of 35.5 µM. The TGI [53] was 19.5 µM, the TGI [54] was 4.81 µM and the TGI [57] was 8.62 µM. For the same molecule, the TGI [55] was 27.1 µM.
